Source: patent US20120034613A1, “Apparatus and Method for Testing Relationships Between Gene Expression and Physical Appearance of Skin” (NSE Products, Inc., priority 2010, published 2012)

Test system: EpidermFT™ Skin Model (EFT-400) full thickness skin cultures
Assay: Affymetrix GeneChip HG U133 Plus 2.0 microarray global gene expression, agent-exposed vs untreated skin cultures
Format: cell-based, human
[1] = Salicin 0.5% vs Untreated Control, 24 hr, direction down
[2] = probe 201286_at, Table 3 skin structure
[3] = probe 203535_at, Table 3 skin structure
[4] = probe 204422_s_at, Table 3 skin structure

OCc1ccccc1O[C@@H]1O[C@H](CO)[C@@H](O)[C@H](O)[C@H]1O [Salicin, 2-(Hydroxymethyl)phenyl β-D-glucospyranoside]
Fold change WNK1 (211993_at) [1]: 2.037 | Fold change ZBTB1 (1557036_at) [1]: 2.05 | Fold change ZDHHC21 (241946_at) [1]: 2.09 | Fold change ZFYVE21 (219929_s_at) [1]: 2.001 | Fold change ZHX1 (223213_s_at) [1]: 2.071 | Fold change ZHX1 (223214_s_at) [1]: 2.15 | Fold change ZNF85 (1554445_at) [1]: 2.143 | Fold change ZNF561 (235200_at) [1]: 2.135 | Fold change ZNF589 (219968_at) [1]: 2.059 | Fold change ZNF823 (229732_at) [1]: 2.045 | Direction DSP (probe 200606_at, 0.5%, 24 hr): down | Fold change DSP (probe 200606_at, 0.5%, 24 hr): 2.848 | Direction HSPA1A /// HSPA1B (probe 200800_s_at, 0.5%, 24 hr): up | Fold change HSPA1A /// HSPA1B (probe 200800_s_at, 0.5%, 24 hr): 3.112 | Direction SCD (probe 200832_s_at, 0.5%, 24 hr): down | Fold change SCD (probe 200832_s_at, 0.5%, 24 hr): 3.77 | Direction ABLIM1 (probe 200965_s_at, 0.5%, 24 hr): down | Fold change ABLIM1 (probe 200965_s_at, 0.5%, 24 hr): 11.88 | Direction TGM2 (probe 201042_at, 0.5%, 24 hr): up | Fold change TGM2 (probe 201042_at, 0.5%, 24 hr): 2.351 | Direction DUSP1 (probe 201044_x_at, 0.5%, 24 hr): up | Fold change DUSP1 (probe 201044_x_at, 0.5%, 24 hr): 3.726 | Direction TIMP3 (probe 201150_s_at, 0.5%, 24 hr): up | Fold change TIMP3 (probe 201150_s_at, 0.5%, 24 hr): 2.058 | Direction SDC1 [2]: down | Fold change SDC1 [2]: 4.63 | Direction SDC1 (probe 201287_s_at, 0.5%, 24 hr): down | Fold change SDC1 (probe 201287_s_at, 0.5%, 24 hr): 3.32 | Direction CLDN4 (probe 201428_at, 0.5%, 24 hr): down | Fold change CLDN4 (probe 201428_at, 0.5%, 24 hr): 3.454 | Direction ITGA3 (probe 201474_s_at, 0.5%, 24 hr): down | Fold change ITGA3 (probe 201474_s_at, 0.5%, 24 hr): 2.052 | Direction NFKBIA (probe 201502_s_at, 0.5%, 24 hr): up | Fold change NFKBIA (probe 201502_s_at, 0.5%, 24 hr): 3.064 | Direction ITGA6 (probe 201656_at, 0.5%, 24 hr): down | Fold change ITGA6 (probe 201656_at, 0.5%, 24 hr): 4.442 | Direction KRT5 (probe 201820_at, 0.5%, 24 hr): down | Fold change KRT5 (probe 201820_at, 0.5%, 24 hr): 2.154 | Direction EPCAM (probe 201839_s_at, 0.5%, 24 hr): down | Fold change EPCAM (probe 201839_s_at, 0.5%, 24 hr): 2.093 | Direction PLAT (probe 201860_s_at, 0.5%, 24 hr): up | Fold change PLAT (probe 201860_s_at, 0.5%, 24 hr): 4.229 | Direction ALDH3A2 (probe 202053_s_at, 0.5%, 24 hr): down | Fold change ALDH3A2 (probe 202053_s_at, 0.5%, 24 hr): 4.399 | Direction TUBB3 (probe 202154_x_at, 0.5%, 24 hr): down | Fold change TUBB3 (probe 202154_x_at, 0.5%, 24 hr): 2.967 | Direction NR4A1 (probe 202340_x_at, 0.5%, 24 hr): up | Fold change NR4A1 (probe 202340_x_at, 0.5%, 24 hr): 2.338 | Direction IFI27 (probe 202411_at, 0.5%, 24 hr): down | Fold change IFI27 (probe 202411_at, 0.5%, 24 hr): 4.671 | Direction ACSL4 (probe 202422_s_at, 0.5%, 24 hr): up | Fold change ACSL4 (probe 202422_s_at, 0.5%, 24 hr): 3.786 | Direction HSPA13 (probe 202558_s_at, 0.5%, 24 hr): up | Fold change HSPA13 (probe 202558_s_at, 0.5%, 24 hr): 3.13 | Direction EPS8 (probe 202609_at, 0.5%, 24 hr): up | Fold change EPS8 (probe 202609_at, 0.5%, 24 hr): 2.334 | Direction TNFAIP3 (probe 202643_s_at, 0.5%, 24 hr): up | Fold change TNFAIP3 (probe 202643_s_at, 0.5%, 24 hr): 6.915 | Direction TNFSF10 (probe 202687_s_at, 0.5%, 24 hr): down | Fold change TNFSF10 (probe 202687_s_at, 0.5%, 24 hr): 20.31 | Direction FOXO1 (probe 202724_s_at, 0.5%, 24 hr): up | Fold change FOXO1 (probe 202724_s_at, 0.5%, 24 hr): 2.098 | Direction SPINT1 (probe 202826_at, 0.5%, 24 hr): down | Fold change SPINT1 (probe 202826_at, 0.5%, 24 hr): 4.585 | Direction DNAJB9 (probe 202843_at, 0.5%, 24 hr): up | Fold change DNAJB9 (probe 202843_at, 0.5%, 24 hr): 3.56 | Direction FBN2 (probe 203184_at, 0.5%, 24 hr): up | Fold change FBN2 (probe 203184_at, 0.5%, 24 hr): 2.028 | Direction S100A9 [3]: down | Fold change S100A9 [3]: 2.59 | Direction LPL (probe 203549_s_at, 0.5%, 24 hr): up | Fold change LPL (probe 203549_s_at, 0.5%, 24 hr): 4.075 | Direction PDE4B (probe 203708_at, 0.5%, 24 hr): up | Fold change PDE4B (probe 203708_at, 0.5%, 24 hr): 5.314 | Direction AQP3 (probe 203747_at, 0.5%, 24 hr): down | Fold change AQP3 (probe 203747_at, 0.5%, 24 hr): 2.032 | Direction DNAJB4 (probe 203810_at, 0.5%, 24 hr): up | Fold change DNAJB4 (probe 203810_at, 0.5%, 24 hr): 2.053 | Direction MAP3K5 (probe 203836_s_at, 0.5%, 24 hr): up | Fold change MAP3K5 (probe 203836_s_at, 0.5%, 24 hr): 2.356 | Direction THBD (probe 203887_s_at, 0.5%, 24 hr): down | Fold change THBD (probe 203887_s_at, 0.5%, 24 hr): 3.137 | Direction PLCB4 (probe 203896_s_at, 0.5%, 24 hr): up | Fold change PLCB4 (probe 203896_s_at, 0.5%, 24 hr): 4.016 | Direction FABP4 (probe 203980_at, 0.5%, 24 hr): up | Fold change FABP4 (probe 203980_at, 0.5%, 24 hr): 2.251 | Direction LPAR1 (probe 204038_s_at, 0.5%, 24 hr): up | Fold change LPAR1 (probe 204038_s_at, 0.5%, 24 hr): 2.732 | Direction FILIP1L (probe 204135_at, 0.5%, 24 hr): down | Fold change FILIP1L (probe 204135_at, 0.5%, 24 hr): 2.996 | Direction TUBB2A (probe 204141_at, 0.5%, 24 hr): down | Fold change TUBB2A (probe 204141_at, 0.5%, 24 hr): 2.739 | Direction ELOVL6 (probe 204256_at, 0.5%, 24 hr): down | Fold change ELOVL6 (probe 204256_at, 0.5%, 24 hr): 3.121 | Direction EDNRB (probe 204273_at, 0.5%, 24 hr): up | Fold change EDNRB (probe 204273_at, 0.5%, 24 hr): 3.916 | Direction FGFR3 (probe 204379_s_at, 0.5%, 24 hr): down | Fold change FGFR3 (probe 204379_s_at, 0.5%, 24 hr): 5.288 | Direction FGF2 (probe 204421_s_at, 0.5%, 24 hr): up | Fold change FGF2 (probe 204421_s_at, 0.5%, 24 hr): 3.845 | Direction FGF2 [4]: up | Fold change FGF2 [4]: 3.455 | Direction COL17A1 (probe 204636_at, 0.5%, 24 hr): down | Fold change COL17A1 (probe 204636_at, 0.5%, 24 hr): 3.576 | Direction KLK6 (probe 204733_at, 0.5%, 24 hr): down | Fold change KLK6 (probe 204733_at, 0.5%, 24 hr): 16.28 | Direction KRT15 (probe 204734_at, 0.5%, 24 hr): down | Fold change KRT15 (probe 204734_at, 0.5%, 24 hr): 3.6 | Direction SMAD7 (probe 204790_at, 0.5%, 24 hr): up | Fold change SMAD7 (probe 204790_at, 0.5%, 24 hr): 2.151 | Direction PTGER4 (probe 204897_at, 0.5%, 24 hr): up | Fold change PTGER4 (probe 204897_at, 0.5%, 24 hr): 2.525 | Direction INFRSF11B (probe 204932_at, 0.5%, 24 hr): up | Fold change INFRSF11B (probe 204932_at, 0.5%, 24 hr): 6.287
